One test has as its target T1, vanilloid receptor (Rattus norvegicus, UniProt O35433).
T1 construct: DRG nerve cells from the primary culture of 2–3 days were equilibrated; endogenous in cells; host or cells: primary culture of dorsal root ganglion neurons from neonatal SD rats
The test is described as follows: 45Ca influx test (calcium uptake) in cultured DRG neurons, capsaicin-stimulated. In kind it is cell-based. Particulars: neonatal SD rat DRG neurons; capsaicin 0.5 μM; 45Ca 10 μCi/ml; 10 min at room temperature; NR: no response. As for the experimental part: 1) Separation of Spinal Dorsal Root Ganglia (DRG) in Newborn Rats and Primary Culture Thereof
Neonatal(2-day old or younger than 2-day old) SD rats were put in ice for 5 minutes to anesthetize and disinfected with 70% ethanol. DRG of all part of spinal cord were dissected (Wood et al., 1988, J. Neurosci. 8, pp3208–3220) and collected in DME/F12 medium to which 1.2 g/l sodium bicarbonate, 50 mg/l gentamycin were added. The DRG were incubated sequentially at 37° C. for 30 min in 200 U/ml collagenase and 2.5 mg/mil trypsin, separately. The ganglia were washed twice with DME/F12 medium supplemented with 10% horse serum, triturated through a fire-polished Pasteur pipette, filtered through Nitex 40 membrane to obtain single cell suspension. This was subjected to centrifugation, then re-suspended in cell culture medium at certain level of cell density. As the cell culture medium, DME/F12 medium supplemented with 10% horse serum, diluted 1:1 with identical medium conditioned by C6 glioma cells (2 days on a confluent monolayer) was used, and NGF(Nerve Growth Factor) was added to final concentration of 200 ng/ml. After the cells were grown 2 days in medium where cytosine arabinoside (Ara-C, 100 μM) was added to kill dividing nonneuronal cells, medium was changed to one without Ara-C. The resuspended cells were plated at a density of 1500–1700 neurons/well onto Terasaki plates previously coated with 10 μg/ml poly-D-ornithine.
2) ^45Ca Influx Experiments
DRG nerve cells from the primary culture of 2–3 days were equilibrated by washing 4 times with HEPES (10 mM, pH 7.4)-buffered Ca^2+, Mg^2+-free HBSS (H-ABSS). The solution in each well was removed from the individual well. Medium containing the test compound plus capsaicin (final concentration 0.5 μM) and ^45Ca (final concentration 10 μCi/ml) in H-HBSS was added to each well and incubated at room temperature for 10 min. Terasalki plates were washed six times with H-HBSS and dried in an oven. To each well, 0.3% SDS (10 μl) was added to elute ^45Ca. After the addition of […] of scintillation cocktail into each well, the amount of ^45Ca influx into neuron was measured by counting radioactivity.

Test [1] deals with Male ICR mice. The test can be described thus: Analgesic activity test: mouse writhing test by inducing with phenyl-p-quinone. The format is in vivo. Particulars: dose 1 mg/kg intraperitoneally 30 min before phenyl-p-quinone; writhes vs control. As for the experimental part:
(3) Analgesic Activity Test: Mouse Writhing Test by Inducing with Phenyl-p-quinone
Male ICR mice (mean body weight 25 g) were maintained in a controlled lighting environment (12 h on/12 h off for experiment. Animals received an intraperitoneal injection of 0.3 ml of the chemical irritant phenyl-p-quinone (dissolved in saline containing 5% ethanol to be a dose of 4.5 mg/lkg) and 6 min later, the number of abdominal constrictions was counted in the subsequent 6 min period. Animals (10 animals/group) received 0.2 ml of test compounds solution in vehicle of ethanol/Tween 80/saline (10/10/80) intraperitoneally 30 min before the injection of phenyl-p-quinone. A reduction in the number of writhes responding to the test drug compound relative to the number responding in saline control group was considered to be indicative of an analgesic effect. Analgesic effect was calculated by % inhibition equation (% inhibitio=(C−T)/C×100), wherein C and T represent the number of writhes in control and compound-treated group, respectively (Table 2).

In test [2] the test system is Male ICR mice. The test is described as follows: Antiinflammatory activity test: TPA-induced mouse ear edema test. The format is in vivo. The settings on record: dose 1 mg/ear topical; TPA 2.5 μg; ear weight 24 h after TPA. The method, then:
(4) Antiinflammatory Activity Test: TPA(12-O-tetradecanoylphorbol 13-acetate)-induced Mouse Ear Edema Test
Male ICR mice(body weight 25–30 g), 10 animals/group, were treated topically on the right ear with 30 μl of TPA (2.5 μg) solution in acetone and after 15 min. 30 μl of acetone or test compound solution in acetone was applied topically. After six hours, an identical treatment was applied again. After twenty four hours following the treatment of TPA, the animals were sacrificed and ear tissue was dissected using 6 mm-diameter punch. Ear tissue dissected were weighed to the nearest 0.1 mg on an electrobalance. The increased weight of the tissue compared to control group was considered as an index of inflammation. The percent inhibition is defined by the following equation: % inlibition=(C−T)/C×100, wherein C and T represent an increase of ear weight in TPA-treated and TPA+drug-treated group, respectively.

The results in this text go back to patent US7067553B2, “Thiourea compounds and the pharmaceutical compositions containing the same” (Pacific Corporation, priority 2000, dated 2006).

The structures appear in SMILES notation.

T1 sequence (O35433 whole entry): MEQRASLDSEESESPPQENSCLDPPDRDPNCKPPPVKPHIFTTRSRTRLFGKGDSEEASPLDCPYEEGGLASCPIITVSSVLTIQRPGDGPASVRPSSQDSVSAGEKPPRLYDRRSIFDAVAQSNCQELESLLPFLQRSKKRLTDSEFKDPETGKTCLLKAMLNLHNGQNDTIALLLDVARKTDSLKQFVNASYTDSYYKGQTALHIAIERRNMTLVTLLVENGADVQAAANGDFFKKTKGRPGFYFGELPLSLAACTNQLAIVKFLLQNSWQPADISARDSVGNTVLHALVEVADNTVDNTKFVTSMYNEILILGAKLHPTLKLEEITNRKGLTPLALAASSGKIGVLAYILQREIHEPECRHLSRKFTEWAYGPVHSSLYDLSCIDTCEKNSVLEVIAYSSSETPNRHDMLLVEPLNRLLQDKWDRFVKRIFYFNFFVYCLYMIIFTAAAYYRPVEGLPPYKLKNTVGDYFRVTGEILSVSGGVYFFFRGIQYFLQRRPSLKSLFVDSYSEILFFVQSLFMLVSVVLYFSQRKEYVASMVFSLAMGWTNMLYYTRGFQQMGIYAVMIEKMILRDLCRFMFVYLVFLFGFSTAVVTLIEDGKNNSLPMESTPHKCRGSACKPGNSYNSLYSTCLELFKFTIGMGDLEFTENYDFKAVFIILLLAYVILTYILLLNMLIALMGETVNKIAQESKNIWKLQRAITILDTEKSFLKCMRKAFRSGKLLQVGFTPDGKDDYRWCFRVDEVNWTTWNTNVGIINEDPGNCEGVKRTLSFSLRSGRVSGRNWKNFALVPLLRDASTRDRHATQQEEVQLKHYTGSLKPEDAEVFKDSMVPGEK

`Cc1ccc(CC(CN/C(S)=N/Cc2ccc(NS(C)(=O)=O)cc2)COC(=O)c2ccccc2)cc1C` (stereo not shown) [Example 9]: on vanilloid receptor, the IC50 stood at 13 µM.

On to `CC(C)(C)C(=O)OCC(C/N=C(\S)NCc1ccc(NS(C)(=O)=O)cc1)Cc1ccc(C(C)(C)C)cc1` (stereo not shown) [Example 10], for which the IC50 at vanilloid receptor is 2.5 µM.

Regarding `CC(C)(C)c1ccc(CC(CNC(=S)NCc2ccc(NS(C)(=O)=O)cc2)COC(=O)c2ccccc2)cc1` (stereo not shown) [Example 11], the IC50 on vanilloid receptor was over 50 µM.

For the compound `COc1cc(CNC(=S)NCC(COC(=O)C(C)(C)C)Cc2ccc(C)c(C)c2)ccc1NS(C)(=O)=O` (stereo not shown) [Example 12], in the test with Male ICR mice [1], the “Analgesic effect (% Inhibition)” value was 65%. The “Anti-inflammatory effect (% Inhibition)” value in the test on Male ICR mice [2] was determined as 41%. The IC50 on vanilloid receptor came to 0.68 µM.

On to `COc1cc(CNC(=S)NCC(COC(=O)c2ccccc2)Cc2ccc(C)c(C)c2)ccc1NS(C)(=O)=O` (stereo not shown) [Example 13], for which the IC50 at vanilloid receptor is 38 µM.

As for `COc1cc(C/N=C(\S)NCC(COC(=O)c2ccccc2)Cc2ccc(C(C)(C)C)cc2)ccc1NS(C)(=O)=O` (stereo not shown) [Example 15], the IC50 on vanilloid receptor is over 50 µM.

For `Cc1ccc(CCC(CNC(=S)NCc2ccc(NS(C)(=O)=O)cc2)COC(=O)C(C)(C)C)cc1C` (stereo not shown) [Example 16], the IC50 at vanilloid receptor is 1.1 µM.

Take `CC(C)(C)C(=O)OCC(CCc1ccc(C(C)(C)C)cc1)CNC(=S)NCc1ccc(NS(C)(=O)=O)cc1` (stereo not shown) [Example 17]: the IC50 at vanilloid receptor is 1.8 µM.
